Patent publication US11690854B2, “Methods of treating heavy menstrual bleeding” (priority 2018, dated 2023)

Experiments:
[1] = Drug interaction studies: co-administered drug pharmacokinetics in the presence of elagolix; conditions: for Effect of co-administration of ELAGOLIX on concentration of concomitant drug (direction of the change in AUC): established drug interactions
Protocol: (§1) Drug interaction studies were performed with ELAGOLIX and other drugs that are likely to be co-administered and with drugs commonly used as probes for pharmacokinetic interactions.

[2] = for Drugs with no observed clinically significant interactions with ELAGOLIX: co-administration with ELAGOLIX
Protocol: as §1

[3] = Ethinyl estradiol 35 mcg and triphasic norgestimate 0.18/0.215/0.25 mg once daily, elagolix 150 ms once daily, N 21

## C#C[C@]1(O)CC[C@H]2[C@@H]3CCC4=CC(=NO)CC[C@@H]4[C@H]3CC[C@@]21CC (mixture of isomers) [Norelgestromin]
[1]; [3]
  Ratio of co-administered drug AUC, with elagolix vs medication alone: 0.85
  Ratio of co-administered drug Cmax, with elagolix vs medication alone: 0.87

## C#CC1(O)CC[C@H]2[C@@H]3CCC4=CC(=O)CC[C@@H]4[C@H]3CC[C@@]21CC (mixture of isomers) [Norgestrel]
[1]; [3]
  Ratio of co-administered drug AUC, with elagolix vs medication alone: 0.92
  Ratio of co-administered drug Cmax, with elagolix vs medication alone: 0.89

## C[C@H]1O[C@@H](O[C@H]2[C@@H](O)C[C@H](O[C@H]3[C@@H](O)C[C@H](O[C@H]4CC[C@@]5(C)[C@H](CC[C@@H]6[C@@H]5C[C@@H](O)[C@]5(C)[C@@H](C7=CC(=O)OC7)CC[C@]65O)C4)O[C@@H]3C)O[C@@H]2C)C[C@H](O)[C@@H]1O [Digoxin]
[1]; Digoxin 0.5 mg single dose, elagolix 200 ms twice daily × 10 days, N 11, 90% CI 1.17-1.35
  Ratio of co-administered drug AUC, with elagolix vs medication alone: 1.26
[1]; Digoxin 0.5 mg single dose, elagolix 200 ms twice daily × 10 days, N 11, 90% CI 1.53-1.91
  Ratio of co-administered drug Cmax, with elagolix vs medication alone: 1.71
[1]
  Effect of co-administration of ELAGOLIX on concentration of concomitant drug (direction of the change in AUC): ↑ digoxin

## C#C[C@]1(O)CC[C@H]2[C@@H]3CCc4cc(O)ccc4[C@H]3CC[C@@]21C [Ethinyl Estradiol]
[1]; [3]
  Ratio of co-administered drug AUC, with elagolix vs medication alone: 1.30
  Ratio of co-administered drug Cmax, with elagolix vs medication alone: 1.15

## CC(=O)N1CCN(c2ccc(OCC3COC(Cn4ccnc4)(c4ccc(Cl)cc4Cl)O3)cc2)CC1 (centres unmarked) [Ketoconazole]
[2]
  Drugs with no observed clinically significant interactions with ELAGOLIX: No dose adjustment is required

## Cc1ncc2n1-c1ccc(Cl)cc1C(c1ccccc1F)=NC2 [Midazolam]
[1]; Midazolam 2 mg single dose, elagolix 300 mg twice daily × 11 days, N 20, 90% CI 0.41-0.50
  Ratio of co-administered drug AUC, with elagolix vs medication alone: 0.46
[1]; Midazolam 2 mg single dose, elagolix 300 mg twice daily × 11 days, N 20, 90% CI 0.51-0 62
  Ratio of co-administered drug Cmax, with elagolix vs medication alone: 0.56
[1]; Midazolam 2 mg single dose, elagolix 150 ms once daily × 13 days, N 11, 90% CI 0.58-0.72
  Ratio of co-administered drug AUC, with elagolix vs medication alone: 0.65
[1]; Midazolam 2 mg single dose, elagolix 150 ms once daily × 13 days, N 11, 90% CI 0.74-0.89
  Ratio of co-administered drug Cmax, with elagolix vs medication alone: 0.81
[1]
  Effect of co-administration of ELAGOLIX on concentration of concomitant drug (direction of the change in AUC): ↓ midazolam

## CO[C@H]1/C=C/O[C@@]2(C)Oc3c(C)c(O)c4c(O)c(c(/C=N/N5CCN(C)CC5)c(O)c4c3C2=O)NC(=O)/C(C)=C\C=C\[C@H](C)[C@H](O)[C@@H](C)[C@@H](O)[C@@H](C)[C@H](OC(C)=O)[C@@H]1C [Rifampin]
[2]; established drug interactions
  Effect of concomitant drug on elagolix (direction of the change in AUC): ↑ elagolix

## CC(C)c1nc(N(C)S(C)(=O)=O)nc(-c2ccc(F)cc2)c1/C=C/[C@@H](O)C[C@@H](O)CC(=O)O [Rosuvastatin]
[1]; Rosuvastatin 20 mg once daily, elagolix 300 mg twice daily × 7 days, N 10, 90% CI 0.50-0.71
  Ratio of co-administered drug AUC, with elagolix vs medication alone: 0.60
[1]; Rosuvastatin 20 mg once daily, elagolix 300 mg twice daily × 7 days, N 10, 90% CI 0.73-1.35
  Ratio of co-administered drug Cmax, with elagolix vs medication alone: 0.99
[1]
  Effect of co-administration of ELAGOLIX on concentration of concomitant drug (direction of the change in AUC): ↓ rosuvastatin

## CN[C@H]1CC[C@@H](c2ccc(Cl)c(Cl)c2)c2ccccc21 [sertraline]
[2]
  Drugs with no observed clinically significant interactions with ELAGOLIX: No dose adjustment is required
